Where two headings read alike, the source gives them in different places.
How the values were obtained:
[1] = biological target: hSERT WT (Homo sapiens, UniProt P31645)
[2] = biological target: NET (Rattus norvegicus, UniProt Q9WTR4); experiment: Radioligand binding assay for NET, displacement of [3H]nisoxetine
[3] = biological target: SERT (Rattus norvegicus, UniProt P31652); experiment: Radioligand binding assay for SERT, displacement of [3H]1; conditions: for Ki(NET)/Ki (SERT): selectivity ratio
Sequence of SERT (P31652 whole entry): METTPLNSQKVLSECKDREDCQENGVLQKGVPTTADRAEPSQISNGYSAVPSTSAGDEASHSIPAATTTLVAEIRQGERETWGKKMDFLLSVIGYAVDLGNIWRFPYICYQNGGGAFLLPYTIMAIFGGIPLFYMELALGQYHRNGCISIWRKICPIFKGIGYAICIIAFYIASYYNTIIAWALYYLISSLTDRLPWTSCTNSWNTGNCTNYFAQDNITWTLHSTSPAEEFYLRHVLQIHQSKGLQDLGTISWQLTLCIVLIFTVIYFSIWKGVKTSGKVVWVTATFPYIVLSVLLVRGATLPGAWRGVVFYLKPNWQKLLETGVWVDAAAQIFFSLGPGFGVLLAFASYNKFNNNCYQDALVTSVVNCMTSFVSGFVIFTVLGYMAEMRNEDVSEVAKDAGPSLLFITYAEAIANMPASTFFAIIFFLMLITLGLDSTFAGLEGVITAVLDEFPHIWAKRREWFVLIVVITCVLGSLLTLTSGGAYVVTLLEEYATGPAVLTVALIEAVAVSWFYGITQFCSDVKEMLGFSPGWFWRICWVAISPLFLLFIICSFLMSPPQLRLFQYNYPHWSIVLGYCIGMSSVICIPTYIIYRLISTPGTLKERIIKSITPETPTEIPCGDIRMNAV

[4] = 30 µM compound, 18°C, COS-7 membranes, hSERT WT
[5] = 30 µM compound, extrapolated from 24°C with the temperature factor of S-1

Sequence of hSERT WT (P31645 whole entry): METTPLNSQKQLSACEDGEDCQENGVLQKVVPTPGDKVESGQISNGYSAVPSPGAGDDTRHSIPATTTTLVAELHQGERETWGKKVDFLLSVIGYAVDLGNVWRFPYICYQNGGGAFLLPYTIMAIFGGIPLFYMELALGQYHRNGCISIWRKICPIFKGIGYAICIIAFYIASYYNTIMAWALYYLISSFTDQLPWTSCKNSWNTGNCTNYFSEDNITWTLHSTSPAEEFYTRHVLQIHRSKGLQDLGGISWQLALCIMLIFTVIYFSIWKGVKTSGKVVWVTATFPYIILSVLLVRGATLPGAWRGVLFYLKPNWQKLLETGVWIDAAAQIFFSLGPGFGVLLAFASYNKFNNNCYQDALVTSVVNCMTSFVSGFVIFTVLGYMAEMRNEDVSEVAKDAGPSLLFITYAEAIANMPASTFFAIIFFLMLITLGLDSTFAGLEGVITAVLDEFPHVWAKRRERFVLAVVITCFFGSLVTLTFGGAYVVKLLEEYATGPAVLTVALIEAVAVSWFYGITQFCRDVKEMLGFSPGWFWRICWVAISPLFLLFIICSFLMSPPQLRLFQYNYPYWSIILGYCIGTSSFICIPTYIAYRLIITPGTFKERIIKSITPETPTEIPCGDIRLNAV
Sequence of NET (Q9WTR4 1-597): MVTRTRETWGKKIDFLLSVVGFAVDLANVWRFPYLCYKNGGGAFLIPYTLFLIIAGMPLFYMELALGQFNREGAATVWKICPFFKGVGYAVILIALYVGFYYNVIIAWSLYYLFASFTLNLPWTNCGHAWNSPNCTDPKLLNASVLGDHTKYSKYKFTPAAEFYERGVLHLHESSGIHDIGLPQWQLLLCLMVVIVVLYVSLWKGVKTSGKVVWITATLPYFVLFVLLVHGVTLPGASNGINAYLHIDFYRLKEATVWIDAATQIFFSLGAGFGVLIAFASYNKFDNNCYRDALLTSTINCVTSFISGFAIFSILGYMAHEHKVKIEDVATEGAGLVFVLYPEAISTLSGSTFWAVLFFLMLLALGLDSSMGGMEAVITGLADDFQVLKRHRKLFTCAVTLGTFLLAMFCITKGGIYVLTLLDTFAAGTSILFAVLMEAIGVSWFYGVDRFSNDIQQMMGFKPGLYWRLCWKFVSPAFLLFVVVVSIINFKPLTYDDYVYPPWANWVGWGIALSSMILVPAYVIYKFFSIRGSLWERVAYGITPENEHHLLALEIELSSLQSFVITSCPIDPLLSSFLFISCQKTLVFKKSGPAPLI

Structure (SMILES)	[3H] S-1 dissoc. t½ (min) at 18°C [1, 4]	[3H] S-1 dissoc. t½ (min) at 18°C [1]	other results
CN(C)CCCC1(c2ccc(F)cc2)OCc2cc(/C=C/c3ccccc3)ccc21 (single isomer, unassigned; (+)) [(+)62]	–	–	24°C dissociation t½ calculated to a t½ at 18°C [1]: 132.3 ± 8.5 min; [3H] S-1 dissoc. t½ (min) at 24°C ([1]; 30 µM compound, 24°C, COS-7 membranes, hSERT WT): 54.9 ± 3.5 min
CN(C)CCCC1(c2ccc(F)cc2)OCc2cc(/C=C/c3ccccc3)ccc21 (single isomer, unassigned; (-)) [(−)62]	37.3 ± 9.5 min	–	–
CN(C)CCCC1(c2ccc(F)cc2)OCc2cc(CN)ccc21 (stereo not drawn) [Compound 5, 3-(5-(Aminomethyl)-1-(4-fluorophenyl)-1,3-dihydroisobenzofuran-1-yl)-N,N-dimethylpropan-1-amine]	17.4 ± 0.8 min	–	–
CN(C)CCCC1(c2ccc(F)cc2)OCc2cc(CN3CCN(c4ccccc4)CC3)ccc21 (stereo not drawn) [Compound 8, 3-(1-(4-Fluorophenyl)-5-((4-phenylpiperazin-1-yl)methyl)-1,3-dihydroisobenzofuran-1-yl)-N,N-dimethylpropan-1-amine]	–	16.4 ± 0.3 min	–
COc1ccccc1N1CCN(Cc2ccc3c(c2)COC3(CCCN(C)C)c2ccc(F)cc2)CC1 (stereo not drawn) [Compound 9, 3-(1-(4-Fluorophenyl)-5-((4-(2-methoxyphenyl)piperazin-1-yl)methyl)-1,3-dihydroisobenzofuran-1-yl)-N,N-dimethylpropan-1-amine]	16.3 ± 0.1 min	–	–
CN(C)CCCC1(c2ccc(F)cc2)OCc2cc(CN3CCN(c4cccc(Cl)c4Cl)CC3)ccc21 (stereo not drawn) [Compound 10, 3-(5-((4-(2,3-Dichlorophenyl)piperazin-1-yl)methyl)-1-(4-fluorophenyl)-1,3-dihydroisobenzofuran-1-yl)-N,N-dimethylpropan-1-amine]	24.8 ± 1.1 min	–	–
CN(C)CCCC1(c2ccc(F)cc2)OCc2cc(CNCc3ccc4ccccc4c3)ccc21 (stereo not drawn) [Compound 13, 3-(1-(4-Fluorophenyl)-5-(((naphthalen-2-ylmethyl)amino)methyl)-1,3-dihydroisobenzofuran-1-yl)-N,N-dimethylpropan-1-amine]	–	22.1 ± 1.5 min	–
CN(C)CCCC1(c2ccc(F)cc2)OCc2cc(CNCc3ccc4c(c3)Cc3ccccc3-4)ccc21 (stereo not drawn) [Compound 14, 3-(5-((((9H-Fluoren-2-yl)methyl)amino)methyl)-1-(4-fluorophenyl)-1,3-dihydroisobenzofuran-1-yl)-N,N-dimethylpropan-1-amine]	–	11.4 ± 0.2 min	–
CN(C)CCCC1(c2ccc(F)cc2)OCc2cc(CNCc3ccc4c(c3)COC4(CCCN(C)C)c3ccc(F)cc3)ccc21 (stereo not drawn) [Compound 15, 3-(5-((((1-(3-(Dimethylamino)propyl)-1-(4-fluorophenyl)-1,3-dihydroisobenzofuran-5-yl)methyl)amino)methyl)-1-(4-fluorophenyl)-1,3-dihydroisobenzofuran-1-yl)-N,N-dimethylpropan-1-amine]	21.4 ± 0.3 min	–	–
CN(C)CCCC1(c2ccc(F)cc2)OCc2cc(Br)ccc21 (stereo not drawn) [Compound 17]	–	–	Ki [2]: 28400 nM; Ki(NET)/Ki (SERT) ([3]; Table 1): >10,000
CN(C)CCCC1(c2ccc(F)cc2)OCc2cc(-c3ccc([N+](=O)[O-])cc3)ccc21 (stereo not drawn) [Compound 19, 3-(1-(4-Fluorophenyl)-5-(4-nitrophenyl)-1,3-dihydroisobenzofuran-1-yl)-N,N-dimethylpropan-1-amine]	–	–	[3H] S-1 dissoc. t½ (min) at 24°C [1]: 40.2 ± 7.0 min; 24°C dissociation t½ calculated to a t½ at 18°C [1, 5]: 97 ± 17 min
CN(C)CCCC1(c2ccc(F)cc2)OCc2cc(/C=C/Cc3ccccc3)ccc21 (stereo not drawn) [Compound 21, (E)-3-(1-(4-Fluorophenyl)-5-(3-phenylprop-1-en-1-yl)-1,3-dihydroisobenzofuran-1-yl)-N,N-dimethylpropan-1-amine]	–	23.1 ± 2.9 min	–
CN(C)CCCC1(c2ccc(F)cc2)OCc2c(I)cccc21 (stereo not drawn) [Compound 22, 3-(1-(4-Fluorophenyl)-4-iodo-1,3-dihydroisobenzofuran-1-yl)-N,N-dimethylpropan-1-amine]	–	33.2 ± 5.8 min	–
CN(C)CCCC(O)(c1ccc(Br)cc1)c1ccc(C#N)cc1CO (stereo not drawn) [Compound 24, 4-(1-(4-Bromophenyl)-4-(dimethylamino)-1-hydroxybutyl)-3-(hydroxymethyl)benzonitrile]	24.7 ± 5.4 min	–	–
CNCCCC1(c2ccc(F)cc2)OCc2cc(C#N)ccc21 (stereo not drawn) [Compound 38, 1-(4-Fluorophenyl)-1-(3-(methylamino)propyl)-1,3-dihydroisobenzofuran-5-carbonitrile]	–	–	Ki [2]: 880 ± 12.4 nM; Ki [3]: 5.04 ± 0.176 nM; Ki(NET)/Ki (SERT) ([3]; Table 3): 174.6
CN(CCCC1(c2ccc(F)cc2)OCc2cc(C#N)ccc21)CCc1ccccc1 (stereo not drawn) [Compound 42, 1-(4-Fluorophenyl)-1-(3-(methyl(phenethyl)amino)propyl)-1,3-dihydroisobenzofuran-5-carbonitrile]	–	–	[3H] S-1 dissoc. t½ (min) at 24°C [1]: 45.4 ± 5.9 min; 24°C dissociation t½ calculated to a t½ at 18°C [1, 5]: 110 ± 14 min
CN(CCCC1(c2ccc(F)cc2)OCc2cc(C#N)ccc21)Cc1csc2ccccc12 (stereo not drawn) [Compound 45, 1-(3-((Benzo[b]thiophen-3-yl-methyl)(methyl)amino)propyl)-1-(4-fluorophenyl)-1,3-dihydroisobenzofuran-5-carbonitrile]	59.6 ± 1.0 min	–	–
CN(CCCC1(c2ccc(F)cc2)OCc2cc(C#N)ccc21)Cc1ccc(N(C)C)cc1 (stereo not drawn) [Compound 46, 1-(3-((4-(Dimethylamino)benzyl)(methyl)amino)propyl)-1-(4-fluorophenyl)-1,3-dihydroisobenzofuran-5-carbonitrile]	–	41.2 ± 2.8 min	–
CN(CCCC1(c2ccc(F)cc2)OCc2cc(C#N)ccc21)Cc1ccnc2ccccc12 (stereo not drawn) [Compound 48, 1-(4-Fluorophenyl)-1-(3-(methyl(quinolin-4-ylmethyl)amino)propyl)-1,3-dihydroisobenzofuran-5-carbonitrile]	29.0 ± 1.3 min	–	–
CN(CCCC1(c2ccc(F)cc2)OCc2cc(C#N)ccc21)Cc1ccc2ccccc2c1 (stereo not drawn) [Compound 49, 1-(4-Fluorophenyl)-1-(3-(methyl(naphthalen-2-ylmethyl)amino)propyl)-1,3-dihydroisobenzofuran-5-carbonitrile]	–	60.1 ± 1.0 min	–
CN(CCCC1(c2ccc(F)cc2)OCc2cc(C#N)ccc21)Cc1ccc2c(c1)Cc1ccccc1-2 (stereo not drawn) [Compound 50, 1-(3-(((9H-Fluoren-2-yl)methyl)(methyl)amino)propyl)-1-(4-fluorophenyl)-1,3-dihydroisobenzofuran-5-carbonitrile]	–	–	Ki(NET)/Ki (SERT) ([3]; Table 3): >100
CN(CCCC1(c2ccc(F)cc2)OCc2cc(C#N)ccc21)C1CC=C(c2c[nH]c3ccccc23)CC1 (stereo not drawn) [Compound 60, 1-(3-((4-(1H-Indol-3-yl)cyclohex-3-en-1-yl)(methyl)amino)propyl)-1-(4-fluorophenyl)-1,3-dihydroisobenzofuran-5-carbonitrile]	–	52.0 ± 7.6 min	–
CN(C)CCCC1(c2ccc(F)cc2)OCc2cc(-c3cccc(N)c3)ccc21 (stereo not drawn) [Compound 61]	43.1 ± 6.2 min	–	–
CN(C)CCCC1(c2ccc(F)cc2)OCc2cc(I)ccc21 (stereo not drawn) [Compound 63]	34.4 ± 6.6 min	–	–

From paper PMC3894853 (Journal of medicinal chemistry, 2013)
